Experiments:
A594 (lung) = assay: SRB short-term cytotoxicity assay, A594; type: cell-based, human; settings: for IC50: Homo sapiens, 96 h
Experimental: Short-term anti-proliferative assays were carried out by two different assays using a panel of human cancer and non-malignant human cell lines. […] The transformed human embryonic kidney cell line HEK293T (wt KRAS) was sensitive to all tested drugs, including TMPyP4, a cationic porphyrin established as a G4 ligand, as well as the anticancer drug 5-fluorouracil (5-FU).
Human cell lines, breast carcinoma (MCF7), lung carcinoma (A549), pancreatic cancer (MIA PaCa2, Panc-1), immortalised telomerase-negative human lung fibroblast (ALT) and normal human lung fibroblast (WI-38), were all purchased from American Type Cell Culture (ATCC). Cell lines were maintained in appropriate medium supplemented with 10% fetal bovine serum (Invitrogen, UK), 2 mM L-glutamine (Invitrogen, Netherlands), and other components as specified by the suppliers. All cell lines were maintained at 37°C, 5% CO2, and routinely passaged. Short-term growth inhibition was measured using the SRB assay as described previously[43] (additional details described in Supplementary Information). […]
Sulforhodamine B (SRB) short-term cytotoxicity assay
Cells were seeded at appropriate densities into the wells of 96 well plates in their corresponding medium and incubated overnight to allow the cells to attach. Subsequently cells were exposed to various concentrations of freshly made solutions of drugs and incubated for 96 h. The cells were subsequently fixed with ice-cold trichloacetic acid (TCA) (10%, w/v) for 30 min and stained with 0.4% SRB dissolved in 1% acetic acid for 15 min.
All incubations were carried out at room temperature except for TCA fixation, which was at 4 °C. The IC50 value, the concentration required to inhibit cell growth by 50%, was determined from the mean absorbance at 540 nm for each drug concentration expressed as a percentage of the control untreated well absorbance. (Performed at School of Pharmacy, University College of London). […]
(#sc-30/sc-126; Santa Cruz Biotechnology Inc., Santa Cruz, CA, USA). Finally, immunoblots were incubated with secondary anti-mouse antibody conjugated with horseradish peroxidase (BioRad) for 3 h at room temperature. The membranes were processed for protein detection using Super Signal substrate (Pierce, Rockford, IL, USA). β-Actin (#A-5441, Sigma–Aldrich) was used as a loading control. Steady-state protein levels were expressed as mean ±SEM from at least three independent experiments.

[1] = system: human KRAS promoter (pGL-Ras0.5, pGL-Ras2.0); assay: KRAS promoter luciferase reporter assay in HEK293T cells; type: cell-based; settings: equitoxic (IC50) concentrations, 72 h, vs DMSO
Excerpt: A first evaluation of the compounds' ability to down-regulate KRAS gene transcription by directly acting on the KRAS promoter was undertaken with a luciferase reporter assay. For this purpose two different size wild-type promoter constructs were used, containing the G4 sequence and cloned into the Firefly luciferase pGL3 Basic backbone (pGL-Ras0.5, PGL-Ras2.0). These and pGL3 Basic empty (Firefly Luciferase negative control/no promoter) were co-transfected into HEK293T cells together with Renilla luciferase pRL-TK (transfection efficiency normalization) as a G4 negative control. […] In general, the data in Figure 5 clearly portraits a reduction of luciferase activity by ~25–50% when compared to Renilla basal levels induced by all G4 ligands.
Figure 5 KRAS promoter activity is decreased following exposure of HEK293T cells lines to equitoxic (IC50) concentrations of compounds TMPyP4, 2d, 3d and 3e. Cells were co-transfected with pGL3-basic vector (empty vector control), or with KRAS promoter luciferase reporter construct PGL-Ras0.5, or PGL-Ras2.0, together with pRL-TK. Twenty-four h later, cells were replated in 96 wells plates, at 5000 cells per well. […] KRAS promoter activity levels were evaluated by Dual-Luciferase assay 72 h after compound exposure. Results are expressed as the luciferase signal ratio of pGL-Ras2.0 or pGL-Ras0.5 to pGL3-basic vector transfected cells, after normalization with Renilla Luciferase. The results are expressed as the mean ± SEM fold-change compared to DMSO exposure, from three independent experiments. *p < 0.05 and § p < 0.01 from DMSO vehicle control.
HEK293T cells were seeded in 35 mm plates at 150000 cells per well. 24 h later, cells were transiently co-transfected with pGL3-basic vector (empty vector control), or with KRAS promoter luciferase reporter construct pGL-Ras0.5, or pGL-Ras2.0, together with pRL-TK (Promega, Madison, WI, USA). KRAS promotor luciferase reporters respectively harbour 500 bp and 2000 bp of the human KRAS promotor region, and were previously described elsewhere. pGL3 Basic empty was used as negative control, and pRL-TK simultaneously for transfection efficiency normalization and as a G4 negative control. […] Transfections were performed using Lipofectamine 2000 (Invitrogen), according to the manufacturer's instructions. […] Finally, 72 h after compound incubation, cells were lysed and firefly and Renilla luciferase activities were measured using the Dual-Luciferase®Reporter Assay System (Promega). KRAS promoter activity levels were expressed as the luciferase signal ratio of pGL-Ras2.0 or pGL-Ras0.5 to pGL3-basic vector transfected cells, after normalization with Renilla Luciferase. The results are expressed as the mean ± SEM fold-change compared to DMSO exposure, from three independent experiments.

SMILES	Selectivity index SI = IC50(WI-38)/IC50(A594) (A594 (lung))	IC50 (A594 (lung))	Reduction of KRAS promoter (luciferase) activity [1]
Cn1cc2c3ccccc3nc-2c2cc(Br)ccc21 [2a, 2-bromo-5-methyl-indolo[3,2-c]quinoline]	9.3	670 nM	–
CCN(CC)CCCNc1ccc2c(c1)c1[nH]c3ccccc3c1c[n+]2C [2d]	–	400 nM	up to 50%
CCN(CC)CCCNc1ccc2[nH]c3c(c[n+](C)c4ccc(NCCCN(CC)CC)cc34)c2c1.[Cl-] [3d]	–	–	up to 50%
CCN(CC)CCCNc1ccc2c(c1)[nH]c1c2c[n+](C)c2ccc(NCCCN(CC)CC)cc12.[Cl-] [3e]	7.0	1450 nM	up to 50%
C[n+]1ccc(-c2c3nc(c(-c4cc[n+](C)cc4)c4ccc([nH]4)c(-c4cc[n+](C)cc4)c4ccc([nH]4)c(-c4cc[n+](C)cc4)c4nc2C=C4)C=C3)cc1 [TMPyP4, reference compound]	–	–	25%

Source: publication PMC5382548 (Scientific Reports, 2015)
